Legend:
[1] = molecular target: T1, IF2 (protein core, residues 1-363) (Thermus thermophilus, UniProt P48515); assay: X-ray crystal structure, […] A, crystal soaking; assay type: binding; conditions: 30 s soak with GTP-containing cryoprotectant; Mg2+ bound; pH 7.5 protein buffer; G-domain P-loop site; GTP occupancy 0.68
T1 construct: gene infB; proteolysed during crystallization to residues 1-363 (40 kDa; N domain, G domain, domain II, start of domain III); one molecule per asymmetric unit
T1 sequence (P48515 1-363): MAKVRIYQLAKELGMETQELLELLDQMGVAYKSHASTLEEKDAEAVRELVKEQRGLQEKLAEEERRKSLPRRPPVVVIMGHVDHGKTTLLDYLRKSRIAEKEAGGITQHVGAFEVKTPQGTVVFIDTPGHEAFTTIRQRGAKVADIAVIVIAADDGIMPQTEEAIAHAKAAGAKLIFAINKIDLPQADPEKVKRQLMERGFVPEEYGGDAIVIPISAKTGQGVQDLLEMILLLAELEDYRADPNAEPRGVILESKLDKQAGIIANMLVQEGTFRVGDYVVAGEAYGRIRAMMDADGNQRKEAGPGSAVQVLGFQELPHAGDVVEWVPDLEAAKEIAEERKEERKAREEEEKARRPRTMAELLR

[2] = molecular target: T1, IF2 (protein core, residues 1-363); assay: X-ray crystal structure, […] A, crystal soaking; assay type: binding; conditions: 5 mM GDP added to the crystallization drop; Mg2+ bound; pH 7.5 protein buffer; G-domain P-loop site

Compound	X-ray crystal structure, 2.8 A, crystal soaking [1]	X-ray crystal structure, 2.3 A, crystal soaking [2]
Nc1nc2c(ncn2[C@@H]2O[C@H](COP(=O)(O)OP(=O)(O)OP(=O)(O)O)[C@@H](O)[C@H]2O)c(=O)[nH]1 [GTP]	4b3x, 4b48, 4b47 for the apo, GTP and GDP complexes, respectively	
Nc1nc2c(ncn2[C@@H]2O[C@H](COP(=O)(O)OP(=O)(O)O)[C@@H](O)[C@H]2O)c(=O)[nH]1 [GDP]		4b3x, 4b48, 4b47 for the apo, GTP and GDP complexes, respectively

— paper PMC3663118, “Structure of the protein core of translation initiation factor 2 in apo, GTP-bound and GDP-bound forms” (Acta Crystallographica Section D: Biological Crystallography, 2013)
